Values after ≈ are worked out from the molar mass of the structure shown. Like-named read-outs stand apart in the source and are kept apart here.
Tests used:
[1] = test system: Ancylostoma ceylanicum hookworms; details: cited from earlier work; for % Parasite reduction: A. ceylanicum infections in hamsters; for reduction of A. ceylanicum burdens: hamsters
BaCC [2] = test: Time to kill: CFU/mL of BaCC after terpene treatment; assay type: cell-based, Bacillus thuringiensis
Description: In order to determine which terpene kills BaCC in the shortest amount of time, we incubated 5 mL of BaCC culture with three terpenes at 1 mg/mL at 4° C. for 1, 2, 3 and 5 hours. No terpene control and no bacteria controls were carried out simultaneously. After incubation with terpenes, samples were centrifuged and the pellets were washed with 5 mL of 1M NaCl once and 5 mL of sterile distilled water twice in order to remove the terpenes. The pellets were re-suspended in the original volume and plated on LB agar with kanamycin and erythromycin. Plates were incubated overnight at 30° C.; the next day, the number of colonies on the plates were enumerated and colony forming units (CFU)/mL calculated.
To assess terpene killing at shorter time points, BaCC culture was grown in 3× LB for 48 h as described above and 60 ml of cultures were aliquoted in sterile tubes. Carvacrol and geraniol were added to the final concentration of 1 mg/mL, and the tubes were placed on a rotator at 4° C. for 15 minutes. The negative control was prepared using sterile water instead of terpenes. At the end of the incubation period, the tubes were centrifuged at 2000× g for 10 minutes and pellets washed with 60 ml of 1 M NaCl once and washed with 60 mL of sterile distilled water twice. Pellets were re-suspended in 1.2 mL of sterile distilled water to concentrate the culture 50 times. Concentrated terpene treated and control samples were plated on LB agar plates containing kanamycin and erythromycin and incubated overnight at 30° C. The number of colonies were counted the next day and CFU/mL calculated for each time point.

BaCC [3] = test: Minimum inhibitory concentration of terpenes against BaCC (broth microdilution); assay type: cell-based; details: Bacillus thuringiensis; 24 h at 30° C. in LB; no absorbance increase; read-out: MIC μg/mL (100)
Description: Three terpenes were tested against BaCC including: carvacrol, geraniol and farnesol, by using the broth microdilution method as described in Agaisse and Lereclus, J. Bacteriol. 176, 4734-4741, 1994 and Agaisse and Lereclus, Mol. Microbiol. 13, 97-107, 1994 with some modifications. Briefly, BaCC from a single colony was grown in 5 mL of LB medium supplemented with 10 μg/mL erythromycin+200 μg/mL kanamycin overnight (O.D. (600) of 4.8, 2.3×10^7 CFU/mL). Terpene solutions were prepared at 1 mg/mL in LB. One hundred μL of two-fold serial dilutions of each terpene in LB were prepared in 96-well microtiter plates over the range of 1000 to 3.9 μg/mL in triplicate. LB without terpenes was used as a negative control. BaCC culture was diluted 100 times, and 100 μL of BaCC culture was added to the wells. Absorbance at 600 nm was recorded before and after the incubation to monitor bacterial growth. The MICs were determined after incubation for 24 h at 30° C. without shaking.

SMILES | CFU/ml (1 mg/mL terpene treatment for time indicated) (BaCC [2]; 1 h at 4° C.) | CFU/ml (1 mg/mL terpene treatment for time indicated) (BaCC [2]; 3 h at 4° C.) | CFU/ml (1 mg/mL terpene treatment for time indicated) (BaCC [2]; 5 h at 4° C.) | CFU/ml (1 mg/mL terpene treatment for time indicated) (BaCC [2]; time 0) | MIC (BaCC [3]) | % Parasite reduction ([1]; 10 mg/kg) | reduction of A. ceylanicum burdens ([1]; 10-mg/kg dose) | other results
CCCSc1ccc2nc(NC(=O)OC)[nH]c2c1 [Albendazole, albendazole] | – | – | – | – | – | – | – | % Parasite reduction ([1]; 1.25 mg/kg): 88%; reduction of A. ceylanicum burdens ([1]; 1.25-mg/kg (4.7 μmol/kg) dose): 88%; dose required to clear the same infection ([1]; in vivo): 5 mg/kg
CC(C)=CCCC(C)=CCCC(C)=CCO [Farnesol, farnesol] | 1.00 × 10^7 CFU/ml | 1.30 × 10^5 CFU/ml | 0 CFU/ml | 2.31 × 10^7 CFU/ml | 500 µg/mL (≈ 2250 µM) | – | – | –
CC(C)=CCC/C(C)=C/CO [Geraniol, geraniol] | 0 CFU/ml | 0 CFU/ml | 0 CFU/ml | 2.31 × 10^7 CFU/ml | 500 µg/mL (≈ 3240 µM) | – | – | CFU/ml (1 mg/mL terpene treatment for time indicated) (BaCC [2]; 15 min at 4° C., culture concentrated 50 times (50X conc.) before plating): 100 CFU/ml
c1ccc([C@H]2CN3CCSC3=N2)cc1 [Levamisole, levamisole] | – | – | – | – | – | 60% | 60% | –
CN1CCCN=C1/C=C/c1cccs1 [Pyrantel, pyrantel] | – | – | – | – | – | 87% | 87% | –
C/C(=N/c1ccc(/N=C/c2ccc(/C=N/c3ccc(/N=C(/C)N(C)C)cc3)cc2)cc1)N(C)C [Tribendimidine, tribendimidine] | – | – | – | – | – | 75% | 75% | –

From patent US12576129B2, “Anthelmintic compositions and methods” (priority 2016, dated 2026)
